Measured values: patent publication US20240299504A1, “COMPOSITIONS AND METHODS FOR TREATING ALZHEIMERS DISEASE” (priority 2023, published 2024)

Experiments:
[1] = tested on: Aβ plaques; assay: Aβ deposition assay (Thioflavin S staining); assay type: in vivo, mouse; settings: vs Veh
Description: (§1) Parathyroid hormone (human) was purchased from TOCRIS Bioscience (Cat #3011/1, Abingdon, United Kingdom). WT or 5×FAD mice (both male and female) were treated with PTH1-34 intermittently [once daily injection of hPTH1-34 (50 μg/Kg) or vehicle (0.9% sodium chloride) (as a control) by subcutaneous injection, starting at 2-MO, 5 days per week] as described previously. Mice were then subjected to behavioral tests and sacrificed for examinations of their bone and brain phenotypes at the indicated ages.
Thioflavin S (Thio-S) staining was used for Aβ deposition assay as previously described with minimal modification. Beginning with the lateral-most section in the ROI (region of interest), every sixth tissue section of six consecutive sections was used. […] The brain slices were then washed with a series of graded EtOH in the dark as follows: 95% EtOH for 2 min, 80% EtOH for 2 min, and 70% EtOH for 2 min. Finally, the brain slices were washed with PBS 3 times in the dark and transferred to slides for sealing with an antifade fluorescence mounting medium. All the brain slices were captured on a Laser confocal microscopy. The images were adjusted to the same threshold to increase signal-to-noise ratio. Plaques >5.5 μm^2 were quantified. Four sections per mouse were quantified. The layers or sub-regions of cortex and hippocampus in each image were outlined and analyzed with the National Institutes of Health ImageJ software.

[2] = tested on: 5×FAD astrocytes; assay: RT-qPCR of cytokines and chemokines in cultured astrocytes; assay type: cell-based, mouse; settings: cultured 5×FAD astrocytes, 100 ng/ml, 24 h
Description: Total RNA was extracted from cortex, hippocampus, or cultured astrocytes using a TRizol reagent (Invitrogen, cat #15596-026, Carlsbad, CA, USA) as previously described. Purified RNA (1-5 μg) was used for cDNA synthesis with the Revert Aid First Strand cDNA Synthesis Kit (Thermo Scientific, cat #K1621, Waltham, MA, USA). The cDNA products were subjected to subsequent quantitative PCR (qPCR) using the QuantiFast SYBR Green PCR Kit (QIA-GEN, cat #204057, Hilden, Germany) with a qPCR System (StepOne Plus). Each sample was repeated at least 3 times, and the mRNA level was normalized to GAPDH using the 2^−ΔΔCt method.
Astrocyte culture was performed according to the standard protocol with some modifications as described in previous literature. In brief, the cerebral cortex and hippocampus of postnatal day 3 (P3) female pups were dissected under a stereomicroscope and placed in ice-cold calcium- and magnesium-free HBSS (Hanks Balanced Salt Solution). The tissues were digested with 2.5% trypsin-EDTA, 3 ml for each mouse, at 37° C. for 20 min with shaking slightly every 5 min. The digested tissue was blown into single-cell suspension, filtered through a […] filter mesh, pelleted at 900×g for 5 min, and resuspended in growth medium (DMEM plus 10% FBS), which was incubated at 37° C. with 5% CO2. […]

[3] = tested on: PYD (pyridinoline); assay: Serum PYD ELISA (bone resorption marker); assay type: in vivo, mouse; settings: 6-MO female 5×FAD mice, compared to WT controls; 50 μg/Kg s.c. intermittent
Description: as §1
Submandibular blood collection was performed in anesthetized mice. A swift lancing motion is used to puncture the vessel. Blood sample (up to 200 μl) was collected with a pipette or other collection tube, allowed to stand at room temperature for 30 min and centrifuged for 15 min at 3000 rpm. Supernatant serum was aliquot and frozen at −80° C. until use. Mouse serum levels of osteocalcin (a marker for bone formation), PYD (pyridinoline, a marker for bone resorption), and PTH were measured using mouse osteocalcin Elisa kit (QUIDEL Corporation), METRA Serum PYD EIA kit (QUIDEL Corporation, San Diego, CA, USA), and mouse PTH Elisa kit (MyBioSource), respectively, following the manufacturers' instruction.

[4] = tested on: GFAP+ astrocytes; assay: Co-immunostaining ThioS/GFAP, reactive astrocytes; assay type: in vivo, mouse
Description: as §1
DAPI was used for nucleus staining.

[5] = tested on: 5×FAD mice; assay: Micro-computed tomography (μCT) of femurs, bone phenotype; assay type: in vivo, mouse; settings: femur μCT, 6-MO female 5×FAD vs WT mice; hPTH1-34 50 μg/Kg s.c. once daily, 5 days per week from 2-MO
Description: as §1
Femurs of WT and 5×FAD female mouse with or without PTH1-34 treatment were detached and fixed overnight in 10% formalin and stored in PBS for further characterization by microCT (μCT). The excised femurs were placed vertically in a 12-mm-diameter scanning holder and scanned using the Scanco μCT40 (Scanco Medical AG). Settings parameters are adjusted as previously described: […], 55 kVp, and 145 μA with an integration time of 200 ms. For the cortical analysis, the bone was scanned at the midshaft of the bone for a scan of 25 slices, and the threshold for cortical bone was set at 329. The 3D reconstruction was performed using all outlined slices and analyzed by μCT evaluation program (v.6.5-2; Scanco Medical). Data were obtained on bone volume (BV), total volume (TV), BV/TV, bone density, and cortical thickness for cortical bone. […]

Q: How did the “reduction in plaque density” value ([1]; female 5×FAD cortex) turn out when `CC[C@H](C)[C@H](NC(=O)[C@H](CCC(=O)O)NC(=O)[C@H](CO)NC(=O)[C@@H](NC(=O)[C@@H](N)CO)C(C)C)C(=O)N[C@@H](CCC(N)=O)C(=O)N[C@@H](CC(C)C)C(=O)N[C@@H](CCSC)C(=O)N[C@@H](Cc1cnc[nH]1)C(=O)N[C@@H](CC(N)=O)C(=O)N[C@@H](CC(C)C)C(=O)NCC(=O)N[C@@H](CCCCN)C(=O)N[C@@H](Cc1cnc[nH]1)C(=O)N[C@@H](CC(C)C)C(=O)N[C@@H](CC(N)=O)C(=O)N[C@@H](CO)C(=O)N[C@@H](CCSC)C(=O)N[C@@H](CCC(=O)O)C(=O)N[C@@H](CCCN=C(N)N)C(=O)N[C@H](C(=O)N[C@@H](CCC(=O)O)C(=O)N[C@@H](Cc1c[nH]c2ccccc12)C(=O)N[C@@H](CC(C)C)C(=O)N[C@@H](CCCN=C(N)N)C(=O)N[C@@H](CCCCN)C(=O)N[C@@H](CCCCN)C(=O)N[C@@H](CC(C)C)C(=O)N[C@@H](CCC(N)=O)C(=O)N[C@@H](CC(=O)O)C(=O)N[C@H](C(=O)N[C@@H](Cc1cnc[nH]1)C(=O)N[C@@H](CC(N)=O)C(=O)N[C@@H](Cc1ccccc1)C(=O)O)C(C)C)C(C)C` [PTH1-34] was run?
A: ~46%

Q: And the “reduction in plaque size” value ([1]; female 5×FAD cortex)?
A: ~34%

Q: And the “reduction in plaque density” value ([1]; female 5×FAD hippocampus)?
A: ~59%

Q: What about the “reduction in plaque size” value ([1]; female 5×FAD hippocampus) of the same compound?
A: ~56%

Q: What about the “reduction in plaque density” value ([1]; male 5×FAD cortex) of the same compound?
A: ~32%

Q: What about the “reduction in plaque size” value ([1]; male 5×FAD cortex) of the same compound?
A: ~28%

Q: What about the “reduction in plaque density” value ([1]; male 5×FAD hippocampus) of the same compound?
A: ~50%

Q: And the “reduction in plaque size” value ([1]; male 5×FAD hippocampus)?
A: ~23%

Q: What about the “expression of cytokines or chemokines (TNF-α, TGF-β1, CCL5, GM-CSF, RANK)” value [2] of the same compound?
A: Nearly all these factors (except GM CSF) were reduced

Q: What about the “serum PYD levels” value [3] of the same compound?
A: little to no effect on serum PYD levels in 5×FAD mice

Q: What about the “inhibition of glial cell activation (GFAP, IBA1), by sex” value ([4]; female and male 5×FAD mice, 6-MO) of the same compound?
A: detectable in both female and male 5×FAD mice

Q: What about the “GFAP+ fluorescence intensity” value ([4]; layers of cortex (except layer II/III) and DG region of hippocampus, ~6 MO female 5×FAD vs Veh) of the same compound?
A: lower in PTH1-34 treated 5×FAD mice than that of Veh controls

Q: And the “effect on glial cells (GFAP, IBA1)” value ([4]; wild-type (WT) female mice, 6-MO)?
A: little effect

Q: And the “plaque-associated GFAP fluorescence” value ([4]; ~6 MO female 5×FAD cortex and hippocampus vs Veh)?
A: diminished

Q: What about the “trabecular bone mass (Tb. BV/TV)” value [5] of the same compound?
A: more trabecular bone mass was induced in 5×FAD mice than that in WT mice
